Experimental data from ChEMBL document CHEMBL1158520, “Aryl- and heteroaryl-substituted aminobenzo[a]quinolizines as dipeptidyl peptidase IV inhibitors” (Bioorg Med Chem Lett, 2010).

How the values were obtained:
Dipeptidyl peptidase 4 = Dipeptidyl peptidase 4 (Homo sapiens, UniProt P27487); assay: Inhibition of DPP4
[1] = Volume of distribution at steady state in Wistar rat at 1 mg/kg, iv; assay type: ADME, organism-based; set-up: dose 1 mg/kg, route intravenous; details: in vivo, read-out: Vdss
[2] = Ratio of drug level in brain to plasma of Wistar rat; assay type: ADME
[3] = Clearance in Wistar rat at 1 mg/kg, iv; assay type: ADME, organism-based; set-up: dose 1 mg/kg, route intravenous; details: in vivo
[4] = Half life in Wistar rat at 1 mg/kg, iv; assay type: ADME, organism-based; set-up: dose 1 mg/kg, route intravenous; details: in vivo
Rattus norvegicus [5] = assay: Reduction of blood glucose level in po dosed Zucker fatty (fa/fa) rat administered 2 hrs before glucose challenge measured after 40 mins glucose challenge by oral glucose tolerance test; assay type: functional, organism-based
[6] = Oral bioavailability in Wistar rat at 3 mg/kg; assay type: ADME, organism-based; details: in vivo
[7] = Distribution coefficient, log D at pH 7.4; assay type: physicochemical; details: octanol/water
Phospholipidosis = assay: Minimal effective concentration for in vitro drug-induced phospholipidosis in fibroblasts; assay type: ADME, cell-based; details: fibroblast
[8] = Mutagenic activity in Salmonella Typhimurium; assay type: toxicity; details: salmonella enterica subsp. enterica serovar typhimurium
Rattus norvegicus [9] = assay: Reduction of blood glucose level in Zucker fatty (fa/fa) rat at 0.3 mg/kg, po administered 2 hrs before glucose challenge measured after 40 mins glucose challenge by oral glucose tolerance test; assay type: functional; set-up: scale not given: the % may be the effect or the level left

Sequence of Dipeptidyl peptidase 4 (P27487 whole entry): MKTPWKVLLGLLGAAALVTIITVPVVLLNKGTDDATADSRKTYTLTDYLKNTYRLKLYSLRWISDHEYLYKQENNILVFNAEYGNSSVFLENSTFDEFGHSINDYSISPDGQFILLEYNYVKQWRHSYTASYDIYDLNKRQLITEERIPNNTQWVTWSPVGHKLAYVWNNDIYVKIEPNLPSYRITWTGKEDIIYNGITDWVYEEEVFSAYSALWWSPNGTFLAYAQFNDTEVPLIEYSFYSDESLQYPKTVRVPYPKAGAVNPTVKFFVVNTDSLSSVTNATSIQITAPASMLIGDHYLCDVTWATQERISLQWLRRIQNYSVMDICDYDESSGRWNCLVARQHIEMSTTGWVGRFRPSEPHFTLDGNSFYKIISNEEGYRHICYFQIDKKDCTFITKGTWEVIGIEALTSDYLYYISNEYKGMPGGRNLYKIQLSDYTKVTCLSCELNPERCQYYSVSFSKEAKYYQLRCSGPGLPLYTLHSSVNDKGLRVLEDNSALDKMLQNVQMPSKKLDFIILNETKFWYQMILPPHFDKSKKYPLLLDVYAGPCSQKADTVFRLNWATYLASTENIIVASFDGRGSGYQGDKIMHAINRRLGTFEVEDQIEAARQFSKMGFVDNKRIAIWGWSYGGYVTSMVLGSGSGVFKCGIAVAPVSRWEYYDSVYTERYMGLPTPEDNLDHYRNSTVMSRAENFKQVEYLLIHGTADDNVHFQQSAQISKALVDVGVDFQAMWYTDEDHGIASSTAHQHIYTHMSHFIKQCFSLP

Structure (SMILES) | IC50 (Dipeptidyl peptidase 4) | logD [7] | other results
COc1cc2c(cc1OC)[C@H]1C[C@@H](N)[C@H](c3cc(C)ccn3)CN1CC2 | 53000 nM |  | 
COc1cc2c(cc1OC)[C@@H]1C[C@H](N)[C@@H](c3cc(C)ccn3)CN1CC2 | 11 nM |  | Vd [1]: 12 L/kg; Kp [2]: 0.7; clearance [3]: 118 mL/min/kg; half-life [4]: 1.4 h; Activity (Rattus norvegicus [5]): Dose-dependent effect; bioavailability [6]: 50%
COc1cc2c(cc1OC)[C@@H]1CC(N)[C@@H](c3cc(C)ccn3)CN1CC2 (mixture of isomers) | 19 nM | 0.3 | Phospholipidosis_MEC (Phospholipidosis): 15 µM
COc1cc2c(cc1OC)[C@@H]1CC(N)[C@@H](c3ccccc3)CN1CC2 (mixture of isomers) |  | 0.8 | Phospholipidosis_MEC (Phospholipidosis): 5 µM
COc1cc2c(cc1OC)[C@@H]1CC(N)[C@@H](c3cc(CF)ccn3)CN1CC2 (mixture of isomers) | 1.2 nM | 0.1 | Activity [8]: Toxic
CCc1cccc([C@H]2CN3CCc4cc(OC)c(OC)cc4[C@@H]3CC2N)c1 (mixture of isomers) | 61 nM | 1.7 | 
COc1cc2c(cc1OC)[C@@H]1CC(N)[C@@H](c3cccc(C4CC4)c3)CN1CC2 (mixture of isomers) | 38 nM | 1.8 | 
COc1cc2c(cc1OC)[C@@H]1CC(N)[C@@H](c3cccc(C)c3)CN1CC2 (mixture of isomers) |  | 1.3 | Vd [1]: 42 L/kg; Kp [2]: 5.8; Phospholipidosis_MEC (Phospholipidosis): 2.5 µM; clearance [3]: 87 mL/min/kg; half-life [4]: 6.9 h; bioavailability [6]: 56%; Activity (Rattus norvegicus [9]): 41%
COc1cc2c(cc1OC)[C@@H]1CC(N)[C@@H](c3cccc(C(C)C)c3)CN1CC2 (mixture of isomers) | 5500 nM | 2 | 
COc1cc2c(cc1OC)[C@@H]1CC(N)[C@@H](c3cccc(CF)c3)CN1CC2 (mixture of isomers) |  | 1.6 | 
COc1cc2c(cc1OC)[C@@H]1CC(N)[C@@H](c3cccc(Cl)c3)CN1CC2 (mixture of isomers) |  | 1.7 | 
COc1cc2c(cc1OC)[C@@H]1CC(N)[C@@H](c3cc(C)ccc3C)CN1CC2 (mixture of isomers) | 1.7 nM | 1.6 | 
